This is an account of results in patent publication US20240287172A1, “PROTEIN BINDERS TO IRHOM2 EPITOPES” (SCIRHOM GMBH, priority 2019, published 2024).

This experiment deals with LPS-induced release of endogenous TNFα from PBMCs from healthy donors. Nature of the experiment: ELISA-based TNFα release assay, LPS-induced, PBMCs from healthy donors. The experiment is classed as cell-based. Particulars: Homo sapiens, PBMC; LPS 50 ng/ml, 2 hours; recombinant murine antibodies and IgG at 1 μg/ml; Batimastat at 10 μM. The procedure: In brief, on day 1, Nunc black MaxiSorp® 96-well plates (Thermo Fisher Scientific, USA) were coated overnight with 100 μl per well of mouse anti-human TNFα capture antibody (provided as part of the DuoSet ELISA kit) at 4 μg/ml TBS at 4° C. On day 2, the capture antibody solution was removed and MaxiSorp® plates were blocked with 300 μl per well of TBS, 1% BSA at room temperature for 3 hours. Meanwhile, 20,000 PBMC from healthy donors (STEMCELL Technologies, Canada) cells in 80 μl of normal growth medium were seeded in each well of Greiner CELLSTAR V-bottom 96-well plates (Thermo Fisher Scientific, USA) and pre-incubated with 20 μl per well of standard growth medium supplemented with Batimastat (BB94, Abcam, UK) at 50 μM as positive control (for a final concentration of 10 μM in the resulting 100 μl sample volume), mouse IgG antibody (Thermo Fisher Scientific, USA) at 5 μg/ml as isotype control (for a final concentration of 1 μg/ml in the resulting 100 μl sample volume) or antibodies of the invention at 5 μg/ml (for a final concentration of 1 μg/ml in the resulting 100 μl sample volume) at 37° C., 5% CO2 for 30 minutes. […] Using an infinite M1000 (Tecan Group, Switzerland) microplate reader, the fluorescence of each well was collected at an excitation wavelength of 435 nm and an emission wavelength of 555 nm.
Background: In an ELISA, binding on a coated surface is turned into a signal by an enzyme label.

One may read the inhibition as how much of the control response was suppressed. With `CNC(=O)[C@H](Cc1ccccc1)NC(=O)[C@H](CC(C)C)[C@H](CSc1cccs1)C(=O)NO` [Batimastat], the inhibition at 10 µM is 99.6%.
